Reference: patent publication US20250120967A1, “TYROSINE KINASES INHIBITORS AND USES THEREOF” (GREAT NOVEL THERAPEUTICS BIOTECH & MEDICALS CORPORATION, priority 2023, published 2025)

Key:
Assay in all cases: Tyrosine kinase inhibition assay
Type in all cases: biochemical
Conditions in all cases: for inhibition at 1 µM: single concentration 1.0 μM, read-out: percent inhibition; for IC50: read-out: IC50 of compound
AXL = target: T1, AXL (Homo sapiens, UniProt P30530)
T1 sequence (P30530 26-894): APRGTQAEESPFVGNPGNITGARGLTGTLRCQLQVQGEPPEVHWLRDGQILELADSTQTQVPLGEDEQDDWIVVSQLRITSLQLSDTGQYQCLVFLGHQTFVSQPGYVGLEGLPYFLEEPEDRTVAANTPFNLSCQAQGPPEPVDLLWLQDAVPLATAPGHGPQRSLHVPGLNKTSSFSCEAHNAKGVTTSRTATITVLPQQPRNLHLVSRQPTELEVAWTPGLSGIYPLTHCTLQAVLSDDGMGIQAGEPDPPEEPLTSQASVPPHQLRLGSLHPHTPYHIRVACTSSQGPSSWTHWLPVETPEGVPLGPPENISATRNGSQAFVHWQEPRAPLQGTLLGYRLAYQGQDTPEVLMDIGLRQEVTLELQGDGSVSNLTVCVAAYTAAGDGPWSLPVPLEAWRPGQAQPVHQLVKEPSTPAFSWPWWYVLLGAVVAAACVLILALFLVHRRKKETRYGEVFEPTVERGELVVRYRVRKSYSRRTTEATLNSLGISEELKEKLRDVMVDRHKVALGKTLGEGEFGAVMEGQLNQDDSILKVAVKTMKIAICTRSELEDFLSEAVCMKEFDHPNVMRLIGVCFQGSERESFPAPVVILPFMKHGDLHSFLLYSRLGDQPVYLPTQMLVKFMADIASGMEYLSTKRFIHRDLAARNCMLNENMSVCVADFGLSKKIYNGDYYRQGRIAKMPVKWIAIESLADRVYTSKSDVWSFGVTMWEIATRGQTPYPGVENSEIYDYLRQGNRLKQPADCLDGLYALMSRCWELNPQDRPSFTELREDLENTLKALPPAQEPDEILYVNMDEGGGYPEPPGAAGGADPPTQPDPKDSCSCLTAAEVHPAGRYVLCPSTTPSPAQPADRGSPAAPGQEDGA
Description: (§1) Tyrosine kinase inhibition assays were performed at ThermoFisher Life Technologies (Madison, WI, USA) using standard protocols (SelectScreen Biochemical Profiling Service, Thermo Fisher Scientific). ATP concentrations used were at the apparent Km. Test compounds were screened in 1% dimethylsulffoxide (DMSO) (final concentration) in the well. For 10-point titrations, 3-fold serial dilutions were conducted from the starting concentration of […]. All Peptide/Kinase Mixtures were diluted to a 2× working concentration in the appropriate Kinase Buffer. All ATP Solutions were diluted to a 4× working concentration in Kinase Buffer (50 mM HEPES pH 7.5, 0.01% BRIJ-35, 10 mM MgCl2, 1 mM EGTA). The apparent ATP Km was previously determined using a Z′-LYTE assay. The Development Reagent was diluted in Development Buffer.
(§2) The inhibition activities of compounds were determined in biochemical assays using single concentration (1.0 μM) measurements. The results were provided as percent inhibition values.

KDR (VEGFR2) = KDR (VEGFR2) (Homo sapiens, UniProt P35968)
Sequence of KDR (VEGFR2) (P35968 20-1356): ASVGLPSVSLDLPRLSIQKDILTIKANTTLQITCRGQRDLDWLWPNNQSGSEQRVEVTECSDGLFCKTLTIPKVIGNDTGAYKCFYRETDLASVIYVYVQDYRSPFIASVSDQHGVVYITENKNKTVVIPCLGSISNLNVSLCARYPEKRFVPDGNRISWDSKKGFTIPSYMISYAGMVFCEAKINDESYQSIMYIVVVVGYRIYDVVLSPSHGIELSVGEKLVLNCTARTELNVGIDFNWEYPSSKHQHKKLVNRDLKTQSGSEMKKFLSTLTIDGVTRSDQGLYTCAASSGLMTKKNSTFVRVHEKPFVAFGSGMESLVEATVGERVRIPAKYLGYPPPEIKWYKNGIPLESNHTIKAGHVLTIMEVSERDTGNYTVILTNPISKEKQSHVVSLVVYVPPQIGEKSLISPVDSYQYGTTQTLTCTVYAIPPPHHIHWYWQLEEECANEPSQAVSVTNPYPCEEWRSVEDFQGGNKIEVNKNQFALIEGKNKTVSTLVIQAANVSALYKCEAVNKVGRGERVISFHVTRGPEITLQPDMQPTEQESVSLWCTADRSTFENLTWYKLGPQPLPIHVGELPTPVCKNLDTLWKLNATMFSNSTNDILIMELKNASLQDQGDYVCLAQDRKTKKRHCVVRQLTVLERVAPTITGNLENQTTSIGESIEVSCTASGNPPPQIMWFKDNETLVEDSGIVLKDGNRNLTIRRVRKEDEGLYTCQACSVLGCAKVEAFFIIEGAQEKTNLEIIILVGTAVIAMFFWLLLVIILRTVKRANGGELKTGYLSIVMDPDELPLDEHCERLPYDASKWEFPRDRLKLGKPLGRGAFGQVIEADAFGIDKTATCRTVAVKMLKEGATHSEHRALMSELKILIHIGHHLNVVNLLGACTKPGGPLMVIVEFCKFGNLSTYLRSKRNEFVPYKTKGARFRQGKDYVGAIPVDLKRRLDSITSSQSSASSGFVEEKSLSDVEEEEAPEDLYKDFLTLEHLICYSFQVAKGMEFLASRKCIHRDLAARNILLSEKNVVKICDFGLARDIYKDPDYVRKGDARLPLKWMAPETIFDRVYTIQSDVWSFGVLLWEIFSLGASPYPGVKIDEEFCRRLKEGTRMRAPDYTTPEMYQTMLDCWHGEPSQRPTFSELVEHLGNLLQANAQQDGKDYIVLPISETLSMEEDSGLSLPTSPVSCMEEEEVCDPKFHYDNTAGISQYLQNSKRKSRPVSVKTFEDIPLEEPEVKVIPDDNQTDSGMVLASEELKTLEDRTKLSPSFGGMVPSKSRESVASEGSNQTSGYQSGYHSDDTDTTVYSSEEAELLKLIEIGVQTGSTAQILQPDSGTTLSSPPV
Description: as §1, §2

MERTK (cMER) = target: T2, MERTK (cMER) (Homo sapiens, UniProt Q12866)
T2 sequence (Q12866 21-999): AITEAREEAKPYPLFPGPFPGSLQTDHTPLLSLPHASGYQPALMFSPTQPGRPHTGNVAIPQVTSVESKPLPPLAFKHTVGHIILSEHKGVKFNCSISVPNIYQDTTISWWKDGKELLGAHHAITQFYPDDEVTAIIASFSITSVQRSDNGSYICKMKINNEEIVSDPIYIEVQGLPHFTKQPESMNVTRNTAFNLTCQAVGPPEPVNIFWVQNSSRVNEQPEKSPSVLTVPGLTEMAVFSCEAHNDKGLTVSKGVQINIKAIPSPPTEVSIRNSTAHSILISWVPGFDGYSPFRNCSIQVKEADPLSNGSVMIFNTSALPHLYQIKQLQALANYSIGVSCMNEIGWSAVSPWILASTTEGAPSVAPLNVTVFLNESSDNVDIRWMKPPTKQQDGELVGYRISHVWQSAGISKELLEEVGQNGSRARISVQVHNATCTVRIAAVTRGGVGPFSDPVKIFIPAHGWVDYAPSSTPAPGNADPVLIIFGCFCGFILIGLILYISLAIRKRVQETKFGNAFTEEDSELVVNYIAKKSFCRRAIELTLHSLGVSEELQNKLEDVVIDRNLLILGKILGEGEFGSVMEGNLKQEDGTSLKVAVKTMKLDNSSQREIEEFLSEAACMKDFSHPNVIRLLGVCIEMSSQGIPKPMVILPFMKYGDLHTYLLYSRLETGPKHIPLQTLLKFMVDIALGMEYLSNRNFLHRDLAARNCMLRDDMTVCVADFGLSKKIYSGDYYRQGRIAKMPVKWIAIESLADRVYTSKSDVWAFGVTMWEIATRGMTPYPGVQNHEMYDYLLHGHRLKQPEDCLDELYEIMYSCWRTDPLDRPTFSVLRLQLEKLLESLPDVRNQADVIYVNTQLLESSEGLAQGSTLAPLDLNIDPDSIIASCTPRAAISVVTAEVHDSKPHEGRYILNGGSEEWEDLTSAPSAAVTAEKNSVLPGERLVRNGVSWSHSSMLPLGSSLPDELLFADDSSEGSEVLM
Description: as §1, §2

MET (cMet) = MET (cMet) (Homo sapiens, UniProt P08581)
Sequence of MET (cMet) (P08581 25-1390): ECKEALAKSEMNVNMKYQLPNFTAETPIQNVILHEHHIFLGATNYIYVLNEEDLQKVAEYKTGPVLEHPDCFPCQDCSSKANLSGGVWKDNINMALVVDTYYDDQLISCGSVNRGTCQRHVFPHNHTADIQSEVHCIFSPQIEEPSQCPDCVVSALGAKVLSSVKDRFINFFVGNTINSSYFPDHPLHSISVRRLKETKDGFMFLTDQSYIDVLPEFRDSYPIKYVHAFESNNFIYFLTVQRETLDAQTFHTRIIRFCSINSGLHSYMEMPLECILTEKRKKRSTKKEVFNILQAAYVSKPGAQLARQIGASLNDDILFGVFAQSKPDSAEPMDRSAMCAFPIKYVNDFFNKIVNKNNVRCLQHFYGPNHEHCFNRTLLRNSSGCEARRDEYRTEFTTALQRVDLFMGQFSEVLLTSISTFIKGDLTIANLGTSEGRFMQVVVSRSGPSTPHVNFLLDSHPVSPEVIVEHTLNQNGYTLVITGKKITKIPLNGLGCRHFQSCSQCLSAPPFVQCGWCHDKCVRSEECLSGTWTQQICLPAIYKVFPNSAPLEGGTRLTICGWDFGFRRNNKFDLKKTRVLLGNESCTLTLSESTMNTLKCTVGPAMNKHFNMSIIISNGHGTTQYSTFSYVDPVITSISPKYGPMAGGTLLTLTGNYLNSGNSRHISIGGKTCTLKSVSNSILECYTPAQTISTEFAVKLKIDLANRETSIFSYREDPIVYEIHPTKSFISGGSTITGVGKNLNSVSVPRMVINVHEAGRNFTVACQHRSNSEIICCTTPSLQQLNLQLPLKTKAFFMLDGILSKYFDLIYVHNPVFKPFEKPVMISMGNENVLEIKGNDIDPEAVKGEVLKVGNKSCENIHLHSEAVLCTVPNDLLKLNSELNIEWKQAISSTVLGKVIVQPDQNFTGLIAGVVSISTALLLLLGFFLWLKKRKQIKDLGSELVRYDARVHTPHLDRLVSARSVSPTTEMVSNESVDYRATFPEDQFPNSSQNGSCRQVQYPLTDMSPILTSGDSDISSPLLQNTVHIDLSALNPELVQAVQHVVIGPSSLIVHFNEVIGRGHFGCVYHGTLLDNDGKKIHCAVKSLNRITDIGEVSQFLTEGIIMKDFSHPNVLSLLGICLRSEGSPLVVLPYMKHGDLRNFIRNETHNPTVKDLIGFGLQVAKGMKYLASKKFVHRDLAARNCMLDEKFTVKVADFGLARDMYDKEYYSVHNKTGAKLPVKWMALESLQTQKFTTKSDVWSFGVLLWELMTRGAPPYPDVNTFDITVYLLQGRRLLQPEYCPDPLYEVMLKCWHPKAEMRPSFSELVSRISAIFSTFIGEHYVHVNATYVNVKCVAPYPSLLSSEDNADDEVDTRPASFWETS
Description: as §1, §2

Row | SMILES | inhibition at 1 µM (AXL) [%] | inhibition at 1 µM (KDR (VEGFR2)) [%] | inhibition at 1 µM (MERTK (cMER)) [%] | inhibition at 1 µM (MET (cMet)) [%] | IC50 (AXL) [nM] | IC50 (KDR (VEGFR2)) [nM] | IC50 (MERTK (cMER)) [nM] | IC50 (MET (cMet)) [nM]
1 | COc1cc2nccc(Oc3ccc(NC(=O)C4(NC(=O)c5ccc(F)cc5)CC4)cc3F)c2cc1OC [Cbo-02, N-(1-((4-((6,7-diMethoxyquinolin-4-yl)oxy)-3-fluorophenyl)carbamoyl)cyclopropyl)-4-fluorobenzamide] | 91 | 96 | 100 | 100 |  |  |  | 
2 | COc1cc2nccc(Oc3ccc(NC(=O)C4(NC(=O)c5ccc(F)cc5)CC4)cc3F)c2cc1Oc1ccc(N)cc1F [Cbo-10] | 98 | 98 | 95 | 95 |  |  |  | 
3 | COc1cc2nccc(Oc3ccc(NC(=O)C4(NC(=O)c5ccc(F)cc5)CC4)cc3F)c2cc1Oc1c(F)cc(N)cc1F [Cbo-14] | 96 | 100 | 97 | 97 |  |  |  | 
4 | COc1cc2nccc(Oc3ccc(NC(=O)C4(C(=O)Nc5ccc(F)cc5)CC4)cc3F)c2cc1Oc1ccc(N)cc1F [Cbo-23] | 106 | 98 | 98 | 98 | 5.42 | 29.2 | 3.72 | 35.2
5 | CNC(=O)c1cc2c(Oc3ccc(NC(=O)C4(C(=O)Nc5ccc(F)cc5)CC4)cc3)ccnc2cc1OC [Zanzalintinib, reference compound] |  |  |  |  | 1.41 | 2.43 | 6.96 | 4.26
